From PubChem BioAssay (NCI)
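Dose response: 5 concentrations. Exposure: 48 h. Format: 96-well plates. Endpoint: linear interpolation; highest concentration if not reached. At the TGI there is no net growth.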

Columns and labels:
Assay in all cases: DTP human tumour cell line panel, 48 h
[1] = system: HS 578T breast
[2] = system: OVCAR-8 ovarian
[3] = system: SR leukemia
[4] = system: SW-620 colon
[5] = system: COLO 205 colon
[6] = system: HCC-2998 colon
[7] = system: PC-3 prostate
[8] = system: NCI-H23 lung
[9] = system: HOP-62 NSCLC
[10] = system: UACC-62 melanoma

## Cc1ccc2c(c1)-c1c(C#N)c(N)nc(-c3ccc(Cl)cc3)c1CCS2(=O)=O
[1]
  TGI: 64.6 µM
[2]
  TGI: > 100 µM
[3]
  TGI: 6.18 µM
[4]
  TGI: > 100 µM
[5]
  TGI: 31.3 µM
[6]
  TGI: > 100 µM
[7]
  TGI: > 100 µM
[8]
  TGI: > 100 µM
[9]
  TGI: > 100 µM
[10]
  TGI: > 100 µM

## CCC(CO)Nc1nc(NCc2ccccc2)c2ncn(C(C)C)c2n1 (configuration not stated)
[1]
  TGI: 27.3 µM
[2]
  TGI: 57.5 µM
[3]
  TGI: 19 µM
[4]
  TGI: > 79 µM
[5]
  TGI: 34.1 µM
[6]
  TGI: 34.7 µM
[7]
  TGI: 37.1 µM
[8]
  TGI: 36.1 µM
[9]
  TGI: 33.9 µM
[10]
  TGI: 47 µM

## c1ccc2c(c1)Sc1nccc3ccnc-2c13
[1]
  TGI: 65.3 µM
[2]
  TGI: > 100 µM
[3]
  TGI: > 100 µM
[4]
  TGI: > 100 µM
[5]
  TGI: > 100 µM
[6]
  TGI: > 100 µM
[7]
  TGI: > 100 µM
[8]
  TGI: > 100 µM
[9]
  TGI: > 100 µM
[10]
  TGI: > 100 µM

## Cc1[nH]c(=O)nc(NCCNCCO)c1C(=O)Nc1cccc2cc3ccccc3cc12
[1]
  TGI: > 100 µM
[2]
  TGI: > 100 µM
[3]
  TGI: > 100 µM
[4]
  TGI: > 100 µM
[5]
  TGI: > 100 µM
[6]
  TGI: > 100 µM
[7]
  TGI: > 100 µM
[8]
  TGI: > 100 µM
[9]
  TGI: > 100 µM
[10]
  TGI: > 100 µM

## Cc1cc2c(O)c(c1)CN(CC(=O)O)Cc1cc(C)cc(c1O)CN(CC(=O)O)Cc1cc(C)cc(c1O)CN(CC(=O)O)C2
[1]
  TGI: > 100 µM
[2]
  TGI: > 100 µM
[3]
  TGI: > 100 µM
[4]
  TGI: > 100 µM
[5]
  TGI: > 100 µM
[6]
  TGI: > 100 µM
[7]
  TGI: > 100 µM
[8]
  TGI: > 100 µM
[9]
  TGI: > 100 µM
[10]
  TGI: > 100 µM

## CCn1c2ccc(C(=O)CCCN3CCCCC3)cc2c2cc(C(=O)CCCN3CCCCC3)ccc21
[1]
  TGI: 7.06 µM
[2]
  TGI: 6.6 µM
[3]
  TGI: 5.31 µM
[4]
  TGI: 3.9 µM
[5]
  TGI: 15.7 µM
[6]
  TGI: 23.8 µM
[7]
  TGI: 12.6 µM
[8]
  TGI: 4.49 µM
[9]
  TGI: 18.2 µM
[10]
  TGI: 38.8 µM

## COc1ccc(OC2OC(CO)C(OCc3ccccc3)C(OCc3ccccc3)C2OCc2ccccc2)cc1 (configuration not stated)
[1]
  TGI: > 100 µM
[2]
  TGI: > 100 µM
[3]
  TGI: > 100 µM
[4]
  TGI: > 100 µM
[5]
  TGI: > 100 µM
[6]
  TGI: > 100 µM
[7]
  TGI: > 100 µM
[8]
  TGI: > 100 µM
[9]
  TGI: > 100 µM
[10]
  TGI: > 100 µM

## CC1C(NNc2ccccc2)Oc2cc3c(cc2C1c1ccccc1O)OCO3 (configuration not stated)
[1]
  TGI: 42.7 µM
[2]
  TGI: 86.8 µM
[3]
  TGI: 11.6 µM
[4]
  TGI: 28.6 µM
[5]
  TGI: 24.5 µM
[6]
  TGI: 17 µM
[7]
  TGI: 21.5 µM
[8]
  TGI: 26.5 µM
[9]
  TGI: 16.2 µM
[10]
  TGI: 17.2 µM

## CC(C)C(=O)C(C)(C)CCc1ccccn1
[1]
  TGI: > 100 µM
[2]
  TGI: > 100 µM
[3]
  TGI: > 100 µM
[4]
  TGI: > 100 µM
[5]
  TGI: > 100 µM
[6]
  TGI: > 100 µM
[7]
  TGI: > 100 µM
[8]
  TGI: > 100 µM
[9]
  TGI: > 100 µM
[10]
  TGI: > 100 µM

## C=C1C(OC2O[C@@H]3O[C@@]4(C)CC[C@H]5[C@H](C)CC[C@@H](C2=C)[C@@]35O4)O[C@@H]2O[C@@]3(C)CC[C@H]4[C@H](C)CC[C@@H]1[C@@]24O3 (some centres not stated)
[1]
  TGI: > 50 µM
[3]
  TGI: > 50 µM
[4]
  TGI: > 50 µM
[5]
  TGI: > 50 µM
[6]
  TGI: > 50 µM
[7]
  TGI: > 50 µM
[8]
  TGI: > 50 µM
[9]
  TGI: > 50 µM
[10]
  TGI: > 50 µM

## CCCCSc1nsc(N(C(=O)c2ccccc2)C(=O)c2ccccc2)n1
[1]
  TGI: 89.7 µM
[2]
  TGI: > 100 µM
[3]
  TGI: 48.3 µM
[4]
  TGI: > 100 µM
[5]
  TGI: 41.5 µM
[6]
  TGI: 74.4 µM
[7]
  TGI: > 100 µM
[8]
  TGI: > 100 µM
[9]
  TGI: > 100 µM
[10]
  TGI: 60.1 µM

## COc1ccc(C2C3=C(COC3=O)Oc3cc4c(cc32)OCO4)c(OC)c1 (configuration not stated)
[1]
  TGI: 98.3 µM
[2]
  TGI: > 100 µM
[3]
  TGI: > 100 µM
[4]
  TGI: > 100 µM
[5]
  TGI: > 100 µM
[6]
  TGI: > 100 µM
[7]
  TGI: > 100 µM
[8]
  TGI: > 100 µM
[9]
  TGI: > 100 µM

## C=C(C)OCOCCOC
[1]
  TGI: > 100 µM
[2]
  TGI: > 100 µM
[3]
  TGI: > 100 µM
[4]
  TGI: > 100 µM
[5]
  TGI: > 100 µM
[6]
  TGI: > 100 µM
[7]
  TGI: > 100 µM
[8]
  TGI: > 100 µM
[9]
  TGI: > 100 µM
[10]
  TGI: > 100 µM

## Cn1c(=O)c(-c2ccccc2)c(O)c2ccccc21
[1]
  TGI: > 100 µM
[2]
  TGI: > 100 µM
[3]
  TGI: > 100 µM
[4]
  TGI: > 100 µM
[5]
  TGI: > 100 µM
[6]
  TGI: > 100 µM
[7]
  TGI: > 100 µM
[8]
  TGI: > 100 µM
[9]
  TGI: > 100 µM

## O=C(OCCN=c1c2ccccc2ccc2ccccc12)c1ccccc1
[1]
  TGI: > 100 µM
[2]
  TGI: > 100 µM
[3]
  TGI: > 100 µM
[4]
  TGI: > 100 µM
[5]
  TGI: > 100 µM
[6]
  TGI: > 100 µM
[7]
  TGI: > 100 µM
[8]
  TGI: > 100 µM
[9]
  TGI: > 100 µM
[10]
  TGI: > 100 µM

## O=C(/C=C/C(=O)N1CCCC1)N1CCCC1
[1]
  TGI: > 100 µM
[2]
  TGI: > 100 µM
[3]
  TGI: > 100 µM
[4]
  TGI: > 100 µM
[5]
  TGI: > 100 µM
[6]
  TGI: > 100 µM
[7]
  TGI: > 100 µM
[8]
  TGI: > 100 µM
[9]
  TGI: > 100 µM
[10]
  TGI: > 100 µM

## O=C1NC2CCCCC2N=C1CC(=O)c1ccc(Br)cc1 (configuration not stated)
[1]
  TGI: 42.1 µM
[2]
  TGI: 19.8 µM
[3]
  TGI: > 100 µM
[4]
  TGI: > 100 µM
[5]
  TGI: > 100 µM
[6]
  TGI: > 100 µM
[7]
  TGI: > 100 µM
[8]
  TGI: > 100 µM
[9]
  TGI: > 100 µM
[10]
  TGI: > 100 µM
